Source: US20250115615A1, “Solid Forms of 3-(5-Fluorobenzofuran-3-yl)-4-(5-methyl-5H-[1,3]dioxolo[4,5-f]indol-7-yl)pyrrole-2,5-dione” (Actuate Therapeutics Inc., priority 2017, published 2025)
Converted amounts (≈) assume the structure as drawn. Blank lines part the entries; values can stand above or below the compound they belong to.

Assays:
Format in all cases: physicochemical
[1] = Mechanical and pressure effects on crystal form (XRPD)
Procedure: 10.0 mg of Form II was weighed into mortar and ground for 5 min. The remaining solid was collected and analyzed by XRPD. […] 4.50 mg of Form II was compressed into tablet. The tablet was then ground into powder and analyzed by XRPD.

[2] = Solubility study, 24 hour (HPLC of filtrate, XRPD of remaining solids); conditions: for solubility at 24 h: thermodynamic from solid
Procedure: 9-ING-41, either Form I or Form II, was added to 1 mL of each of 10 different solvents in a vial to make a suspension. The samples were shaken at 2000 rpm in a shaker at room temperature for 24 hours. Mixtures were visually examined to ensure saturation. After 24 hours, 1 mL of suspension was filtered through a 0.45 um nylon micro-filtration membrane into another clear glass vial, respectively. The filtrate was analyzed by HPLC and the remaining solids were analyzed using XRPD.

[3] = Solubility study, 1 hour (Form II added to Form I-saturated filtrates); conditions: for Crystal form of remaining solids (XRPD): 1 hour; for solubility at 1 h / solubility at 24 h: thermodynamic from solid; for solubility at 1 h: excess Form II added to Form I-saturated filtrate, shaken 1 hour; for solubility at 24 h: Form I suspension shaken 24 hours, room temperature
Procedure: Step 1: A sufficient amount of Form I was added to 1 mL solvent (EtOH, Labrasol, Benzyl Benzoate, Benzyl Alcohol, PEG400: Tween80: EtOH (75:8:17) and PEG300:BzOH: Water (65:10:25)) to make a suspension. The samples were shaken at 2000 rpm in a shaker at room temperature for 24 hours.
Step 2: The vials were visually examined to ensure saturation. 1 mL of suspension was filtered at 24 hours through a 0.45 μm nylon micro-filtration membrane into another clean clear glass vial. The filtrate was analyzed by HPLC.
Step 3: Excess Form II was added to the 6 residual filtrates from Step 2 to make a suspension, respectively. The samples were shaken at 2000 rpm in a shaker for 1 hour. The suspensions were filtered after 1 hour through a 0.45 μm nylon micro-filtration membrane into another clean glass vial. The filtrate was analyzed by HPLC and the remaining solids were analyzed using XRPD.

[4] = Solubility in sesame oil (visual estimate); conditions: for visual result: 24 hours, room temperature; for Estimated solubility: sesame oil, stirred 24 hours at room temperature, visual examination
Procedure: The solubility of 9-ING-41 in sesame oil cannot be measured by HPLC. The solubility was estimated by adding weighed portions of Form I (or Form II) into sesame oil. The samples were stirred for 24 hours at room temperature and the vials were visually examined to ensure dissolution.

[5] = organic solvent or mixture, PEG400:Tween80:EtOH (75:8:17)

Crystal form after compression (XRPD) ([1]; 4.50 mg compressed into tablet, then ground into powder): no effect on the crystalline form
Crystal form after grinding (XRPD) ([1]; 10.0 mg ground in mortar for 5 min): remained Form II
Solubility ([2]; Benzyl Alcohol, room temperature): 30.553 mg/mL (≈ 75.6 mM)
Solubility ([2]; Benzyl Benzoate, room temperature): 73.265 mg/mL (≈ 181 mM)
Solubility ([2]; Dimethyl Acetamide, room temperature): >100 mg/mL
Solubility ([2]; EtOH, room temperature): 0.903 mg/mL (≈ 2.23 mM)
Solubility ([2]; Labrasol, room temperature): 68.455 mg/mL (≈ 169 mM)
Solubility ([2]; PEG300:BzOH:Water (65:10:25), room temperature): 9.410 mg/mL (≈ 23.3 mM)
Solubility ([2]; PEG400, room temperature): >100 mg/mL
Solubility ([2]; PEG400:Tween80:EtOH (75:8:17), room temperature): 90.418 mg/mL (≈ 224 mM)
Solubility ([2]; Water, room temperature): Not detected
Crystal form of remaining solids (XRPD) ([2]; ethanol experiment): the remaining solids were a solvate
Crystal form of remaining solids (XRPD) ([2]; the other experiments (not water, sesame oil, ethanol)): the solids appeared to be Form I
Crystal form of remaining solids (XRPD) ([2]; water and sesame oil experiments): the remaining solids were Form II
Crystal form of remaining solids (XRPD) ([3]; EtOH and PEG300:BzOH:Water (65:10:25)): did not change
Crystal form of remaining solids (XRPD) ([3]; Labrasol, Benzyl Benzoate, Benzyl Alcohol, PEG400:Tween80:EtOH (75:8:17)): rapidly converts to Form I
solubility at 1 h ([3]; filtrate saturated with Form I, aqueous with cosolvent or surfactant or cyclodextrin, PEG300:BzOH:Water (65:10:25)): 10.2 mg/mL (≈ 25.3 mM)
solubility at 1 h ([3]; filtrate saturated with Form I, oil or lipid, Labrasol): 87 mg/mL (≈ 215 mM)
solubility at 1 h ([3]; filtrate saturated with Form I, organic solvent or mixture, Benzyl Alcohol): 39.9 mg/mL (≈ 98.6 mM)
solubility at 1 h ([3]; filtrate saturated with Form I, organic solvent or mixture, Benzyl Benzoate): 71.8 mg/mL (≈ 178 mM)
solubility at 1 h ([3]; filtrate saturated with Form I, organic solvent or mixture, EtOH): 2.55 mg/mL (≈ 6.3 mM)
solubility at 1 h [3, 5]: 106 mg/mL (≈ 262 mM)
visual result ([4]; 0.90 mg in 1214.50 mg sesame oil): dissolution
visual result ([4]; 3.18 mg in 2638.01 mg sesame oil): Incomplete
Estimated solubility [4]: 0.741 to 1.21 µg/mg
Structure (SMILES): Cn1cc(C2=C(c3coc4ccc(F)cc34)C(=O)NC2=O)c2cc3c(cc21)OCO3 [Form II, 3-(5-fluorobenzofuran-3-yl)-4-(5-methyl-5H-[1,3]dioxolo[4,5-f]indol-7-yl) pyrrole-2,5-dione]

solubility at 24 h ([2]; EtOH, organic solvent or mixture, room temperature): 1.27 mg/mL (≈ 3.15 mM)
solubility at 24 h ([2]; Labrasol, oil or lipid, room temperature): 60.5 mg/mL (≈ 150 mM)
solubility at 24 h ([2]; PEG300:BzOH:Water (65:10:25), aqueous with cosolvent or surfactant or cyclodextrin, PEG300:BzOH:Water (65:10:25), room temperature): 5.09 mg/mL (≈ 12.6 mM)
solubility at 24 h ([2]; PEG400, organic solvent or mixture, PEG400, room temperature): 96.5 mg/mL (≈ 239 mM)
solubility at 24 h ([2]; PEG400:Tween80:EtOH (75:8:17), organic solvent or mixture, PEG400:Tween80:EtOH (75:8:17), room temperature): 72.8 mg/mL (≈ 180 mM)
Solubility ([2]; Water, room temperature): Not detected
Crystal form of remaining solids (XRPD) ([2]; all experiments with Form I as starting material): remained Form I
solubility at 24 h ([2]; benzyl alcohol, organic solvent or mixture, room temperature): 24 mg/mL (≈ 59.5 mM)
solubility at 24 h ([2]; benzyl benzoate, organic solvent or mixture, room temperature): 53 mg/mL (≈ 131 mM)
solubility at 24 h ([2]; dimethyl acetamide, organic solvent or mixture, room temperature): > 100 mg/mL
solubility at 24 h ([3]; aqueous with cosolvent or surfactant or cyclodextrin, PEG300:BzOH:Water (65:10:25)): 4.96 mg/mL (≈ 12.3 mM)
solubility at 24 h ([3]; oil or lipid, Labrasol): 61.4 mg/mL (≈ 152 mM)
solubility at 24 h ([3]; organic solvent or mixture, Benzyl Alcohol): 22.3 mg/mL (≈ 55.2 mM)
solubility at 24 h ([3]; organic solvent or mixture, Benzyl Benzoate): 48.3 mg/mL (≈ 119 mM)
solubility at 24 h ([3]; organic solvent or mixture, EtOH): 1.26 mg/mL (≈ 3.11 mM)
solubility at 24 h [3, 5]: 73.4 mg/mL (≈ 182 mM)
visual result ([4]; 1.00 mg in 3464.12 mg sesame oil): Incomplete
visual result ([4]; 1.00 mg in 5997.92 mg sesame oil): dissolution
Estimated solubility [4]: 0.167 to 0.289 µg/mg
Structure (SMILES): Cn1cc(C2=C(c3coc4ccc(F)cc34)C(=O)NC2=O)c2cc3c(cc21)OCO3 [Form I]
